This test deals with S-adenosylmethionine synthase isoform type-2 (Homo sapiens) (UniProt P31153). The experiment in a line: PubChem AID 508. The settings on record: recombinant MAT2A, DSF SYPRO orange Tm shift; at 10 µM; protein 2 µM; buffer 25 mM HEPES; pH 7.5; 75mM NaCl; 100uM ATPgammaS; Adenosine 5'-[gamma-thio]triphosphate tetralithium salt; stronger effect = higher value.
Sequence of S-adenosylmethionine synthase isoform type-2 (Homo sapiens) (P31153 whole entry, looked up, canonical isoform): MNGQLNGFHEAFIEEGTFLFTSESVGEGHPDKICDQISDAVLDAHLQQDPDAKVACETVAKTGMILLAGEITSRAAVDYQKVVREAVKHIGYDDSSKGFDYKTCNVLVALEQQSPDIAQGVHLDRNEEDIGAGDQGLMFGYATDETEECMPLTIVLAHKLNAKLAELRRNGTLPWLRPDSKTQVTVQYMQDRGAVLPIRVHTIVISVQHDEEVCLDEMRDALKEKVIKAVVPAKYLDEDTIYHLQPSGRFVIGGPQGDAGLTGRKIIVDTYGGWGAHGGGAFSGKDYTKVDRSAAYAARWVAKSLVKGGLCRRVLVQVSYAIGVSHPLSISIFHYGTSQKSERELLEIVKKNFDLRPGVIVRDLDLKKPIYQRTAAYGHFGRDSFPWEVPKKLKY

Consider `CSCCC(N)C(=O)O` (stereo unspecified), for which the Tm shift is 2.1 Celsius.

The record behind these values is PubChem BioAssay AID508.
